Results published in patent US20080254445A1, “Prognosis in Cancer Patients Vaccinated with a Cancer Antigen Peptide-Associated Agent” (priority 2003, published 2008).

Key:
[1] = system: peptide-specific CTL precursors in PBMCs; experiment: Peptide-specific CTL precursors in pre- and post (6th)-vaccination PBMCs by IFN-γ-release assay; format: cell-based, human; conditions: post (6th)-vaccination PBMC; positive cases/No. of tested cases (% positive)
peptide-reactive IgG = experiment: ELISA of peptide-reactive serum IgG in pre- and post-vaccination sera; format: in vivo, human; conditions: post (3rd and 6th)-vaccination sera vs pre-vaccination; positive cases/No. of tested cases (% positive)
[2] = Delayed type hypersensitivity (DTH) skin test; format: in vivo, human; conditions: skin test site, first to 6th vaccination; positive cases/No. of tested cases (% positive)

Sequence: AFLRHAAL [ART4 13]
- Increased immune reactions to peptide: CTL activity [1]: 0/1
- Increased immune reactions to peptide: IgG antibody (peptide-reactive IgG): 0/2
- Increased immune reactions to peptide: DTH response [2]: 0/4

Sequence: ALVEFEDVL [HNRPL140]
- Increased immune reactions to peptide: CTL activity [1]: 0/5
- Increased immune reactions to peptide: IgG antibody (peptide-reactive IgG): 0/5
- Increased immune reactions to peptide: DTH response [2]: 0/5

Sequence: ASLDSDPWV [WHSC103]
- Increased immune reactions to peptide: CTL activity [1]: 0/6

Sequence: DFMIQGGDF [CypB91]
- Increased immune reactions to peptide: CTL activity [1]: 0/17

Sequence: DVWSFGILL [Ick422]
- Increased immune reactions to peptide: IgG antibody (peptide-reactive IgG): 0/10

Sequence: DYPSLSATDI [ART4 75]
- Increased immune reactions to peptide: IgG antibody (peptide-reactive IgG): 0/15

Sequence: DYSARWNEI [SART2 93]
- Increased immune reactions to peptide: DTH response [2]: 0/19

Sequence: EYCLKFTKL [ART1 170]
- Increased immune reactions to peptide: CTL activity [1]: 0/7
- Increased immune reactions to peptide: DTH response [2]: 0/9

Sequence: ILGELREKV [WHSC141]
- Increased immune reactions to peptide: DTH response [2]: 0/8

Sequence: ILPRKHHRI [UBE208]
- Increased immune reactions to peptide: CTL activity [1]: 0/1
- Increased immune reactions to peptide: DTH response [2]: 0/1

Sequence: KFHRVIKDF [CypB84]
- Increased immune reactions to peptide: CTL activity [1]: 0/3
- Increased immune reactions to peptide: DTH response [2]: 0/4

Sequence: KLKHYGPGWV [CypB129]
- Increased immune reactions to peptide: CTL activity [1]: 0/6

Sequence: KLVERLGAA [Ick246]
- Increased immune reactions to peptide: DTH response [2]: 0/7

Sequence: LIADFLSGL [UBE85]
- Increased immune reactions to peptide: DTH response [2]: 0/2

Sequence: LLQAEAPRL [SART3 302]
- Increased immune reactions to peptide: CTL activity [1]: 0/4
- Increased immune reactions to peptide: IgG antibody (peptide-reactive IgG): 0/5
- Increased immune reactions to peptide: DTH response [2]: 0/6

Sequence: RIIYDRKFL [EIF51]
- Increased immune reactions to peptide: CTL activity [1]: 0/1
- Increased immune reactions to peptide: DTH response [2]: 0/1

Sequence: RLAEYQAYI [SART3 309]
- Increased immune reactions to peptide: CTL activity [1]: 0/6
- Increased immune reactions to peptide: DTH response [2]: 0/9

Sequence: SYTRLFLIL [SART2 899]
- Increased immune reactions to peptide: CTL activity [1]: 0/7
